Source: patent US20150210796A1, “Novel Compound, Novel Polymer, Colorant Including the Same, Positive Photosensitive Resin Composition Including the Same, and Color Filter” (Samsung SDI Co., Ltd., priority 2014, published 2015)

Assay: Solubility: dissolution state of compound in dilution solvent
Format: physicochemical
Conditions: agitated at 25° C. and 100 rpm for 1 hour; for Amount of dissolved compound, diluted solvent (Anone): 0.5 g compound added to Anone (cyclohexanone); for Amount of dissolved compound, diluted solvent (PGMEA): 0.5 g compound added to PGMEA
Method: 0.5 g of each compound represented by Chemical Formulae 3-1 and 7-1 is respectively added to a dilution solvent (PGMEA, Anone, MeOH) to prepare each solution, the solution is agitated at 25° C. and 100 rpm for 1 hour with a mix rotor (MIXROTAR VMR-5, Luchi Deiseido Co., Ltd.) to examine dissolution state of the compound (the content of the dissolved compound), and the results are provided in the following Table 1. (Anone indicates cyclohexanone)

SMILES	Amount of dissolved compound, diluted solvent (Anone)	Amount of dissolved compound, diluted solvent (PGMEA)	Amount of dissolved compound, diluted solvent (MeOH) (0.5 g compound added to MeOH)
C=C(C)C(=O)OCCNS(=O)(=O)c1ccc(-c2c3ccc(=[N+](CC)CC)cc-3oc3cc(N(CC)CC)ccc23)c(S(=O)(=O)[O-])c1 [Chemical Formula 3-1]	equal to 0.1 wt %	to 0.1 wt %	
C=C(C)C(=O)OCCN(CCCCCCCCCCCCCCCC)S(=O)(=O)c1ccc(-c2c3ccc(=[N+](CC)CC)cc-3oc3cc(N(CC)CC)ccc23)c(S(=O)(=O)[O-])c1 [Chemical Formula 7-1]	3.0 wt %	0.1 wt %	equal to 10.0 wt %
